In PubChem BioAssay AID210 (DTP/NCI, 2004) one finds T/C data, which are given here for 17 molecules.

In the experiment the test system is CD2F1 mice, ip Colon 26 adenocarcinoma, median survival T/C. Description: NCI In Vivo Anticancer Drug Screen. Data for tumor model Colon 26 Adenocarcinoma (intraperitoneal) in CD2F1 (CDF1) mice. As to conditions: endpoint: median survival time, higher = longer survival. The method, then: The antitumor activity of compounds was measured in mice bearing transplantable tumors. Survival or tumor size were measured and the results are expressed as the measurement made in the treated group (T) divided by the measurement made in the vehicle treated control group (C). The tumor model used in this assay is Colon 26 Adenocarcinoma (intraperitoneal) in CD2F1 (CDF1) mice

[1] abbreviates: dose: 12.5 mg/kg/injection, schedule: Q04DX003 (ip), vehicle: saline with Tween-80.
[2] abbreviates: dose: 25.0 mg/kg/injection, schedule: Q04DX003 (ip), vehicle: saline with Tween-80.
Where [3] appears, read: dose: 50.0 mg/kg/injection, schedule: Q04DX003 (ip), vehicle: saline with Tween-80.
[4] abbreviates: dose: 100.0 mg/kg/injection, schedule: Q04DX003 (ip), vehicle: saline with Tween-80.
Where [5] appears, read: dose: 200.0 mg/kg/injection, schedule: Q04DX003 (ip), vehicle: saline with Tween-80.
[6] abbreviates: dose: 400.0 mg/kg/injection, schedule: Q04DX003 (ip), vehicle: saline with Tween-80.
Where [7] appears, read: dose: 12.5 mg/kg/injection, schedule: Q04DX003 (ip), vehicle: Klucel (hydroxypropylcellulose) (HPC).
Where [8] appears, read: dose: 25.0 mg/kg/injection, schedule: Q04DX003 (ip), vehicle: Klucel (hydroxypropylcellulose) (HPC).
The mark [9] stands for this setting: dose: 50.0 mg/kg/injection, schedule: Q04DX003 (ip), vehicle: Klucel (hydroxypropylcellulose) (HPC).
Setting [10] is: dose: 100.0 mg/kg/injection, schedule: Q04DX003 (ip), vehicle: Klucel (hydroxypropylcellulose) (HPC).
[11] abbreviates: dose: 200.0 mg/kg/injection, schedule: Q04DX003 (ip), vehicle: Klucel (hydroxypropylcellulose) (HPC).
The mark [12] stands for this setting: dose: 8.0 mg/kg/injection, schedule: Q01DX009 (ip), vehicle: saline.
[13] abbreviates: dose: 16.0 mg/kg/injection, schedule: Q01DX009 (ip), vehicle: saline.
Setting [14] is: dose: 32.0 mg/kg/injection, schedule: Q01DX009 (ip), vehicle: saline.
The mark [15] stands for this setting: dose: 50.0 mg/kg/injection, schedule: Q04DX003 (ip), vehicle: saline.

Where “and” joins values, the source holds several entries; their conditions need not be identical. Identical values can stand only once. Toxic doses and inconclusive results are not listed.

For the molecule `Nc1ccc(Cl)cc1N`, the T/C reads like this: (dose: 12.5 mg/kg/injection, schedule: Q04DX003 (ip), vehicle: saline + Tween-80 + alcohol) 96 % of control; under setting [1], 100 % of control; (dose: 25.0 mg/kg/injection, schedule: Q04DX003 (ip), vehicle: saline + Tween-80 + alcohol) 98 % of control; under setting [2], 100 % of control; (dose: 50.0 mg/kg/injection, schedule: Q04DX003 (ip), vehicle: saline + Tween-80 + alcohol) 102 % of control; under setting [3], 100 % of control. For the same molecule, the T/C was 104 % of control (dose: 100.0 mg/kg/injection, schedule: Q04DX003 (ip), vehicle: saline + Tween-80 + alcohol); 102 % of control under setting [4]; 107 % of control (dose: 200.0 mg/kg/injection, schedule: Q04DX003 (ip), vehicle: saline + Tween-80 + alcohol); 106 % of control under setting [5]; 109 % of control under setting [6].
Consider `ClCCCCCCCCCCc1ccccc1`, for which the T/C was 102 % of control under setting [7]; 106 % of control under setting [8]; 100 % of control under setting [9]; 100 % of control under setting [10]; 106 % of control under setting [11]; 114 % of control (dose: 400.0 mg/kg/injection, schedule: Q04DX003 (ip), vehicle: Klucel (hydroxypropylcellulose) (HPC)).
In the case of `CN(C)CCCNc1ccc(NCCCN(C)C)c2c1C(=O)c1ccccc1C2=O`, the T/C is 101 % of control (dose: 4.0 mg/kg/injection, schedule: Q01DX009 (ip), vehicle: saline); 106 % of control under setting [12]; 100 % of control under setting [13]; 97 % of control under setting [14].
For `NC(C/[N+]([O-])=N/O)C(=O)O` (stereo not given), the T/C is 99 % of control (dose: 8.78 mg/kg/injection, schedule: Q01DX010 (ip), vehicle: alkali diluted with saline); 100 % of control (dose: 13.2 mg/kg/injection, schedule: Q01DX010 (ip), vehicle: alkali diluted with saline); 96 % of control (dose: 19.8 mg/kg/injection, schedule: Q01DX010 (ip), vehicle: alkali diluted with saline); 113 % of control (dose: 29.6 mg/kg/injection, schedule: Q01DX010 (ip), vehicle: alkali diluted with saline); 104 % of control (dose: 44.4 mg/kg/injection, schedule: Q01DX010 (ip), vehicle: alkali diluted with saline); 95 % of control (dose: 66.7 mg/kg/injection, schedule: Q01DX010 (ip), vehicle: alkali diluted with saline).
Turning to `CO[C@H]1C[C@@H]2CC[C@@H](C)[C@@](O)(O2)C(=O)C(=O)N2CCCC[C@H]2C(=O)O[C@H]([C@H](C)C[C@@H]2CC[C@@H](O)[C@H](OC)C2)CC(=O)[C@H](C)C=C(C)[C@@H](O)[C@@H](OC)C(=O)[C@H](C)C[C@H](C)/C=C/C=C/C=C1C`, the T/C under setting [1] is 104 % of control; the T/C under setting [2] was 118 % of control; the T/C under setting [3] was 116 % of control; the T/C under setting [4] was 105 % of control; the T/C under setting [5] is 96 % of control.
As to `CCC1OCC(C(Cl)CCl)O1` (stereo not given), the T/C is 116 % of control under setting [7]; 97 % of control under setting [8]; 99 % of control under setting [9]; 104 % of control under setting [10]; 92 % of control under setting [11].
Take `CCCCNC(C)[C@]1(O)Cc2c(O)c3c(c(O)c2[C@@H](OC2CC(N)C(O)C(C)O2)C1)C(=O)c1c(OC)cccc1C3=O` (stereo not given in full): the T/C reads like this: (dose: 23.0 mg/kg/injection, schedule: Q07DX002 (iv), vehicle: saline) 110 % of control; (dose: 35.0 mg/kg/injection, schedule: Q07DX002 (iv), vehicle: saline) 122 % of control; (dose: 54.0 mg/kg/injection, schedule: Q07DX002 (iv), vehicle: saline) 110 % of control; (dose: 84.0 mg/kg/injection, schedule: Q07DX002 (iv), vehicle: saline) 113 % of control.
Turning to `Cc1cc(C)c(-c2cc(O)c(C)cc2O)c(C)c1`, the T/C is 107 % of control under setting [1]; 109 % of control under setting [2]; 106 % of control under setting [3]; 112 % of control under setting [4]; 112 % of control under setting [5].
Regarding `CN(C)CCCNc1cccc2c1C(=O)c1cccc(NCCCN(C)C)c1C2=O`, the T/C was 106 % of control under setting [12], 100 % of control under setting [13] and 87 % of control under setting [14].
For `CCOC(C)C(/C=N/NC(N)=S)=NNC(N)=S` (stereo not given), the T/C is, setting by setting: under setting [1], 98 % of control; (dose: 12.5 mg/kg/injection, schedule: Q04DX003 (ip), vehicle: saline) 104 % of control; under setting [2], 98 % of control; (dose: 25.0 mg/kg/injection, schedule: Q04DX003 (ip), vehicle: saline) 93 % of control; under setting [3], 100 % of control; under setting [15], 113 % of control. In addition, the T/C runs as follows: under setting [4], 99 % of control; under setting [5], 97 % of control; under setting [6], 97 % of control.
On to `Cc1ncc([N+](=O)[O-])n1CCSC(N)=O`, for which the T/C by setting is: under setting [1], 94 % of control; under setting [2], 124 % of control and 96 % of control; under setting [3], 89 % of control; under setting [4], 105 % of control and 95 % of control; under setting [5], 90 % of control and 94 % of control; under setting [6], 96 % of control.
With `O=C(O)c1c2c(nc3ccccc13)Cc1ccccc1-2`, the T/C (dose: 12.5 mg/kg/injection, schedule: Q04DX002 (ip), vehicle: water) is 97 % of control; the T/C (dose: 25.0 mg/kg/injection, schedule: Q04DX002 (ip), vehicle: water) is 113 % of control; the T/C (dose: 100.0 mg/kg/injection, schedule: Q04DX002 (ip), vehicle: water) is 105 % of control.
In the case of `Cc1c2oc3c(C)c(N)cc(C(=O)NC4C(=O)NC(C(C)C)C(=O)N5CCCC5C(=O)N(C)CC(=O)N(C)C(C(C)C)C(=O)OC4C)c3nc-2c(C(=O)NC2C(=O)NC(C(C)C)C(=O)N3CCCC3C(=O)N(C)CC(=O)N(C)C(C(C)C)C(=O)OC2C)c(N)c1=O` (stereo not given), the T/C was 102 % of control (dose: 500.0 micrograms/kg/injection, schedule: Q01DX001 (ip), vehicle: saline + alcohol) and 102 % of control (dose: 1000.0 micrograms/kg/injection, schedule: Q01DX001 (ip), vehicle: saline + alcohol).
In the case of `Nc1nncs1`, the T/C runs as follows: (dose: 50.0 mg/kg/injection, schedule: Q01DX005 (ip), vehicle: saline) 112 % of control; under setting [15], 119 % of control; (dose: 100.0 mg/kg/injection, schedule: Q01DX005 (ip), vehicle: saline) 120 % of control.
On to `CCCC(=O)OCc1cc(=O)n(C)c2c3c4c(cc12)c(C)cc(=O)n4CO3`, for which the T/C (dose: 6.25 mg/kg/injection, schedule: Q04DX003 (ip), vehicle: Klucel (hydroxypropylcellulose) (HPC)) was 98 % of control; the T/C under setting [7] is 104 % of control; the T/C under setting [8] was 123 % of control; the T/C under setting [10] was 152 % of control.
On to `CN(C)CCCNc1c2ccccc2nc2cccc([N+](=O)[O-])c12`, for which the T/C by setting is: (dose: 0.02 mg/kg/injection, schedule: Q07DX002 (iv), vehicle: saline with Tween-80) 105 % of control; (dose: 0.04 mg/kg/injection, schedule: Q07DX002 (iv), vehicle: saline with Tween-80) 107 % of control; (dose: 0.07 mg/kg/injection, schedule: Q07DX002 (iv), vehicle: saline with Tween-80) 108 % of control; (dose: 0.12 mg/kg/injection, schedule: Q07DX002 (iv), vehicle: saline with Tween-80) 106 % of control; (dose: 0.3 mg/kg/injection, schedule: Q07DX002 (iv), vehicle: saline with Tween-80) 101 % of control; (dose: 0.46 mg/kg/injection, schedule: Q07DX002 (iv), vehicle: saline with Tween-80) 100 % of control.
On to `C/C=C/C1=CC(=O)C(O)C1O` (stereo not given), for which the T/C is, setting by setting: (dose: 45.0 mg/kg/injection, schedule: Q04DX002 (ip), vehicle: water) 106 % of control; (dose: 90.0 mg/kg/injection, schedule: Q04DX002 (ip), vehicle: water) 99 % of control; (dose: 180.0 mg/kg/injection, schedule: Q04DX002 (ip), vehicle: water) 101 % of control.
